Measured values reported in paper PMC5787524, “Discovery of a FLT3 inhibitor LDD1937 as an anti-leukemic agent for acute myeloid leukemia” (Oncotarget, 2017).
Entries after “also recorded” stand apart in the source; their conditions may differ.

How the values were obtained:
[1] = tested on: PARP cleavage in MV-4-11 cells; assay: PARP cleavage western blot; assay type: cell-based, human; details: MV-4-11, 24 h
Protocol: Cells were lysed in SDS Lysis buffer (12 mM Tris-Cl, pH 6.8, 5% glycerol, and 0.4% SDS), and the protein concentrations were measured with the SMART BCA Protein Assay kit (iNtRON Biotechnology, Korea). The proteins were resolved with SDS-polyacrylamide gel electrophoresis followed by transfer to PVDF membranes (Millipore, Billerica, MA, USA) and incubated overnight with the appropriate antibodies. The antibodies used were as follows: phospho-STAT5 (p-STAT5; rabbit polyclonal IgG; #9351, 1:1,000), cyclin D1 (rabbit polyclonal IgG; #2922, 1:1,000), and PARP (rabbit polyclonal IgG; #9542, 1:1,000) from Cell Signaling Technology (Danver, MA, USA), STAT5 (rabbit polyclonal IgG; #sc-835, 1:1,000) from Santa Cruz (Santa Cruz, CA, USA), and β-actin (mouse monoclonal IgG; # A5441, 1:5000) from Sigma-Aldrich. Goat anti-rabbit IgG (#111-035-003; 1;5,000) and anti-mouse IgG (#115-035-033; 1:5,000) secondary antibodies were obtained from Jackson ImmunoResearch Laboratories, Inc. (West Grove, PA, USA).

[2] = tested on: cellular senescence; assay: Senescence-associated β-galactosidase assay (SA-β-gal); assay type: cell-based; details: data not shown
[3] = tested on: MV-4-11 xenograft; assay: MV-4-11 mouse tumor xenograft; assay type: in vivo, BALB/c nu/nu mice
Protocol: MV-4-11 cells were inoculated subcutaneously in the flank of female BALB/c nu/nu (athymic nude) mice (5 × 10^6 cells per mouse). […] The drug or the control PBS was administered daily for a duration of 21 days. Tumor sizes were measured twice a week for 21 days, and the tumor volumes were calculated with the following formula: V (volume) = X (length) × D (width)^2/2. After 21 days, the mice were sacrificed, and the tumor weights were measured.

[4] = molecular target: T1, JAK3 (Homo sapiens, UniProt P52333); assay: In vitro JAK3 kinase assay (HTRF); assay type: biochemical; details: mean ± S.D.
T1 sequence (P52333 1-1124): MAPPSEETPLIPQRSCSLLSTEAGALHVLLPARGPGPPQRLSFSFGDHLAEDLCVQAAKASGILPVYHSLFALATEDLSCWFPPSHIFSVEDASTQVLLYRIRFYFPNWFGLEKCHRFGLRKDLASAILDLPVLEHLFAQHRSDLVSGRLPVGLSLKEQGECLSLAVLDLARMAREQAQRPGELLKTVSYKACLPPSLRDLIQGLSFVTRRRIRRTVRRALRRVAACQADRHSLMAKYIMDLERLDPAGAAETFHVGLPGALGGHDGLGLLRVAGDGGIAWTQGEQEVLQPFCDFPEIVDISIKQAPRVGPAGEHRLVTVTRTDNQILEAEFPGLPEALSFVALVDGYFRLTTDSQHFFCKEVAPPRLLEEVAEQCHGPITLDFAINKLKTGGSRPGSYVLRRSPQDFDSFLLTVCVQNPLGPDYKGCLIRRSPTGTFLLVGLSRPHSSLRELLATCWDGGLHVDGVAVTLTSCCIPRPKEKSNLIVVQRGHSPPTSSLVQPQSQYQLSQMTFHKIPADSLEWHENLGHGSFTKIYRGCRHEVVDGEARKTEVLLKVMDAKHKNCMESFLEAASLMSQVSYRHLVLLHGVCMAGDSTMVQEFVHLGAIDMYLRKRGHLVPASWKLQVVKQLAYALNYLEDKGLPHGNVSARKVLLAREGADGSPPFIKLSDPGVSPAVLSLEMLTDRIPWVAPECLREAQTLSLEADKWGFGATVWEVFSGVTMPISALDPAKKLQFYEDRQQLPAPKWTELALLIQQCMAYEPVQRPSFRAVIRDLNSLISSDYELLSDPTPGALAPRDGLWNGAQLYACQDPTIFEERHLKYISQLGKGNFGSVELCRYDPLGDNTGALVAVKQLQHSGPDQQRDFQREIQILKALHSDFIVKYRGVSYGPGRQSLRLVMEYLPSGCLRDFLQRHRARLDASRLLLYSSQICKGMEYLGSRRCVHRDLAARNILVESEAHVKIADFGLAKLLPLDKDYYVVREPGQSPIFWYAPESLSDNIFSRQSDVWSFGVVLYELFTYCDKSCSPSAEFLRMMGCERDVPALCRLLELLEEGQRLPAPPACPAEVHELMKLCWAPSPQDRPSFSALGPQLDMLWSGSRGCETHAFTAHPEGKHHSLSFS
Protocol: The inhibition of the FLT3 kinase activity was measured with homogeneous, time-resolved fluorescence (HTRF) assays. Recombinant proteins containing the FLT3 kinase domain were purchased from Carna biosciences (Japan). Optimal enzyme, ATP, and substrate concentrations were established with the HTRF KinEASE kit (Cisbio, France) according to the manufacturer’s instructions. The FLT3 enzymes were mixed with serially diluted compounds and peptide substrates in a kinase reaction buffer (50 mM HEPES (pH 7.0), 500 μM ATP, 0.1 mM sodium orthovanadate, 5 mM MgCl2, 1 mM DTT, 0.01% bovine serum albumin (BSA), and 0.02% NaN3). After the addition of the reagents for detection, the TR-FRET signal was measured with a Victor multilabel reader (Perkin Elmer, Waltham, MA, USA). The IC50 was calculated with nonlinear regression using Prism version 5.01 (GraphPad). JAK2, JAK3, cMET, and RET in vitro kinase assays were also carried out using the HTRF assay kit.

- SA-β-gal (cellular senescence) [2]: did not change
- IC50 [4]: 690 ± 59.9 nM
Compound: COC(=O)c1ccc2c(c1)/C(=C1/Nc3ccccc3/C1=N\OCCN1CCNCC1)C(=O)N2.Cl.Cl [LDD1937, methyl (2Z,3E)-2′-oxo-3-((2-(piperazin-1-yl)ethoxy)imino)-[2,3′-biindolinylidene]-5′-carboxylate dihydrochloride]
- cleaved PARP ([1]; 1 nM): an increase in the cleaved PARP was detected
- PARP cleavage ([1]; western blot): induced PARP cleavage in a dose-dependent manner
- tumor weight ([3]; 5 mg/kg intravenous daily, day 21, vs control): significant reduction
- tumor volume / tumor mass ([3]; 10 mg/kg intravenous daily for 21 days): the tumor disappeared from day 3; also recorded: completely disappear from day 3
- body weight ([3]; 5 and 10 mg/kg intravenous daily, administration period, between groups): no significant difference in body weight
- tumor volume and weight ([3]; 5 and 10 mg/kg intravenous, vs control): significantly reduced
